Reference: patent US20250257041A1, “INDUCERS OF INTEGRATED STRESS RESPONSE TO TREAT CANCER” (The Board of Regents of The University of Texas System, priority 2022, published 2025)

system: HCT116 WT; experiment: Proliferation of HCT116 colorectal cell line, Cell TiterGlo; type: cell-based, human; details: Homo sapiens, HCT-116, wild type HCT116; 10-point dose response in triplicate; multiple values = separate independent experiments; read-out: HCT116 IC50 (uM) HCT116 WT
Protocol: Briefly, compounds were tested for their effect on proliferation of HCT116 colorectal cell lines using Cell TiterGlo (Promega). Each compound was tested in a 10-point dose response experiment in triplicate. Multiple values in the column titled HCT116 WT reflect separate independent experiments. The three columns titled “HCT116 WT (repeat)”, “HCT116-CGN2KO” and “HCT116 WT+ISRIB” provide data for selected compounds that were tested simultaneously under three conditions. The HCT116 WT column lists IC50 against the wild type HCT116 colorectal cancer cell line. The HCT116-CGN2KO lists IC50 data for cells in which one component of the integrated stress response, GCN2, has been knocked out using CRISPR technology.

**Q.** `Cn1nc(-c2ccc(NC(=O)c3ccccc3Cl)cc2)cc1NC(=O)N1CCCC1` [SW394876, N-(3-(4-(2-Chlorobenzamido)phenyl)-1-methyl-1H-pyrazol-5-yl)pyrrolidine-1-carboxamide] was tested. Which IC50 did it give?
**A.** 0.19 µM

**Q.** How did the IC50 turn out when `Cn1nc(-c2ccc(NC(=O)c3ccccc3Cl)cc2)cc1NC(=O)c1cccc(NC(=O)OC(C)(C)C)c1` [SW394897-1, tert-butyl (3-((3-(4-(2-chlorobenzamido)phenyl)-1-methyl-1H-pyrazol-5-yl)carbamoyl)phenyl)carbamate] was run?
**A.** 0.02 µM

**Q.** Which IC50 does the source give for `CN1CCN(c2ccccc2C(=O)Nc2ccc(-c3cc(NC(=O)c4ccccc4)n(C)n3)cc2)CC1` [SW394698, N-(4-(5-Benzamido-1-methyl-1H-pyrazol-3-yl)phenyl)-2-(4-methylpiperazin-1-yl)benzamide] here?
**A.** 10 µM

**Q.** Which IC50 does the source give for `C#CCOc1cccc(C(=O)Nc2cc(-c3ccc(NC(=O)c4ccccc4N=[N+]=[N-])cc3)nn2C)c1` [SW393186, 2-Azido-N-(4-(1-methyl-5-(3-(prop-2-yn-1-yloxy)benzamido)-1H-pyrazol-3-yl)phenyl)benza-mide] here?
**A.** 0.1 µM

**Q.** For `Cn1nc(-c2ccc(NC(=O)c3ccccc3Cl)cc2)cc1NC(=O)C1CCCCCC1` [SW394599, N-(3-(4-(2-Chlorobenzamido)phenyl)-1-methyl-1H-pyrazol-5-yl)cycloheptanecarboxamide], which IC50 is on record?
**A.** 0.05 µM

**Q.** `Cc1ccncc1C(=O)Nc1ccc(-c2cc(NC(=O)c3ccccc3)n(C)n2)cc1` [SW394519, N-(4-(5-Benzamido-1-methyl-1H-pyrazol-3-yl)phenyl)-4-methylnicotinamide] was tested. Which IC50 did it give?
**A.** 0.25 µM

**Q.** How did the IC50 turn out when `Cn1nc(-c2ccc(NC(=O)c3ccccc3Cl)cc2)cc1NC(=O)C1CCCCC1` [SW394546, 2-Chloro-N-(4-(5-(Cyclohexanecarboxamido)-1-methyl-1H-pyrazol-3-yl)phenyl)benzamide] was run?
**A.** 0.033 µM

**Q.** For `Cn1nc(-c2ccc(C(=O)Nc3ccccc3Cl)cc2)cc1NC(=O)c1ccccc1` [SW393293, 4-(5-benzamido-1-methyl-1H-pyrazol-3-yl)-N-(2-chlorophenyl)benzamide], which IC50 is on record?
**A.** 0.19 µM

**Q.** `Cn1nc(-c2ccc(NC(=O)c3ccccc3-c3ccccc3)cc2)cc1NC(=O)c1ccccc1` [SW393270, N-(4-(5-benzamido-1-methyl-1H-pyrazol-3-yl)phenyl)-[1,1′-biphenyl]-2-carboxamide] was tested. Which IC50 did it give?
**A.** 0.13 µM

**Q.** `COc1ccc(C(=O)Nc2ccc(-c3cc(NC(=O)c4ccccc4)n(C)n3)cc2)cc1` [SW388716, N-(4-(5-Benzamido-1-methyl-1H-pyrazol-3-yl)phenyl)-4-methoxybenzamide] was tested. Which IC50 did it give?
**A.** 19 µM

**Q.** For `C#Cc1cccc(C(=O)Nc2cc(-c3ccc(NC(=O)c4cccnc4Cl)cc3)nn2C)c1` [SW394487, 2-Chloro-N-(4-(5-(3-ethynylbenzamido)-1-methyl-1H-pyrazol-3-yl)phenyl)nicotinamide], which IC50 is on record?
**A.** 0.023 µM

**Q.** Which IC50 does the source give for `Cc1c(-c2ccc(NC(=O)c3ccccc3Cl)cc2)nn(C)c1NC(=O)c1ccccc1` [SW393216, N-(4-(5-Benzamido-1,4-dimethyl-1H-pyrazol-3-yl)phenyl)-2-chlorobenzamide] here?
**A.** 0.07 µM

**Q.** For `C#Cc1cccc(C(=O)Nc2cc(-c3ccc(NC(=O)c4ccccc4COCCNC(=O)CCC4(C)N=N4)cc3)nn2C)c1` [SW394741, N-(4-(5-(3-ethynylbenzamido)-1-methyl-1H-pyrazol-3-yl)phenyl)-2-((2-(3-(3-methyl-3H-diazirin-3-yl)propanamido)ethoxy)methyl)benzamide], which IC50 is on record?
**A.** 0.17 µM

**Q.** For `Cn1nc(-c2ccc(NC(=O)c3ccccc3Cl)cc2)cc1NC(=O)c1cccc(C(=O)c2ccccc2)c1` [SW393187, N-(4-(5-(3-benzoylbenzamido)-1-methyl-1H-pyrazol-3-yl)phenyl)-2-chlorobenzamide], which IC50 is on record?
**A.** 0.14 µM

**Q.** `Cn1nc(-c2ccc(NC(=O)c3ccccc3Cl)cc2)cc1NC(=O)c1cccc(OCCNC(=S)Nc2ccc(-c3c4ccc(=O)cc-4oc4cc(O)ccc34)c(C(=O)O)c2)c1` [SW394972, 5-(3-(2-(3-((3-(4-(2-chlorobenzamido)phenyl)-1-methyl-1H-pyrazol-5-yl)carbamoyl)phenoxy)ethyl)thioureido)-2-(6-hydroxy-3-oxo-3H-xanthen-9-yl)benzoic acid] was tested. Which IC50 did it give?
**A.** 1.3 µM

**Q.** With `Cn1nc(-c2ccc(NC(=O)c3cccnc3C(F)(F)F)cc2)cc1NC(=O)c1ccccc1Cl` [SW394631, N-(4-(5-(2-Chlorobenzamido)-1-methyl-1H-pyrazol-3-yl)phenyl)-2-(trifluoromethyl)nicotinamide] as the compound, how does the IC50 read?
**A.** 0.022 µM

**Q.** Which IC50 does the source give for `C#Cc1cccc(C(=O)Nc2cc(-c3ccc(NC(=O)c4cccc(C5(C(F)(F)F)N=N5)c4)cc3)nn2C)c1` [SW393243, 3-Ethynyl-N-(1-methyl-3-(4-(3-(3-(trifluoromethyl)-3H-diazirin-3-yl)benzamido)phenyl)-1H-pyrazol-5-yl)benzamide] here?
**A.** 17 µM

**Q.** How did the IC50 turn out when `COc1cccc(C(=O)Nc2cc(-c3ccc(NC(=O)OC(C)(C)C)cc3)nn2C)c1` [SW388712, tert-Butyl (4-(5-(3-methoxybenzamido)-1-methyl-1H-pyrazol-3-yl)phenyl)carbamate] was run?
**A.** 0.69 µM

**Q.** With `O=C(Nc1ccc(-c2cc(NC(=O)c3ccccc3)on2)cc1)c1ccccc1` [SW394572, N-(4-(5-benzamidoisoxazol-3-yl)phenyl)benzamide] as the compound, how does the IC50 read?
**A.** 5.8 µM

**Q.** How did the IC50 turn out when `Cn1nc(-c2ccc(NC(=O)c3cccnc3C(F)(F)F)cc2)cc1NC(=O)c1ccccc1F` [SW394629, N-(4-(5-(2-Fluorobenzamido)-1-methyl-1H-pyrazol-3-yl)phenyl)-2-(trifluoromethyl)nicotinamide] was run?
**A.** 0.017 µM

**Q.** `Cn1nc(-c2ccc(N)cc2)cc1NC(=O)c1ccccc1` [SW388714, N-(3-(4-Aminophenyl)-1-methyl-1H-pyrazol-5-yl)benzamide] was tested. Which IC50 did it give?
**A.** 16 µM

**Q.** `O=C(Nc1nc(-c2ccc(NC(=O)c3ccccc3Cl)cc2)cs1)c1ccccc1` [SW393296, N-(4-(2-Benzamidothiazol-4-yl)phenyl)-2-chlorobenzamide] was tested. Which IC50 did it give?
**A.** 1.9 µM

**Q.** How did the IC50 turn out when `Cn1nc(-c2ccc(NC(=O)c3ccccc3Cl)cc2)cc1NC(=O)c1cccc(CNC(=O)OC(C)(C)C)c1` [SW394896-1, tert-butyl (3-((3-(4-(2-chlorobenzamido)phenyl)-1-methyl-1H-pyrazol-5-yl)carbamoyl)benzyl)carbamate] was run?
**A.** 0.05 µM

**Q.** For `Cn1nc(-c2ccc(NC(=O)c3ccccc3Cl)cc2Cl)cc1NC(=O)c1ccccc1` [SW393294, N-(4-(5-benzamido-1-methyl-1H-pyrazol-3-yl)-3-chlorophenyl)-2-chlorobenzamide], which IC50 is on record?
**A.** 0.28 µM

**Q.** How did the IC50 turn out when `Cn1nc(-c2ccc(NC(=O)c3ccccc3-c3cncnc3)cc2)cc1NC(=O)c1ccccc1` [SW394485, N-(4-(5-Benzamido-1-methyl-1H-pyrazol-3-yl)phenyl)-2-(pyrimidin-5-yl)benzamide] was run?
**A.** 0.107 µM

**Q.** With `Cn1nc(-c2ccc(NC(=O)c3ccccc3C3CCNCC3)cc2)cc1NC(=O)c1ccccc1` [SW394767, N-(4-(5-benzamido-1-methyl-1H-pyrazol-3-yl)phenyl)-2-(piperidin-4-yl)benzamide] as the compound, how does the IC50 read?
**A.** 0.27 µM

**Q.** `Cc1ncccc1C(=O)Nc1ccc(-c2cc(NC(=O)c3ccccc3Cl)n(C)n2)c(F)c1` [SW394699, N-(4-(5-(2-chlorobenzamido)-1-methyl-1H-pyrazol-3-yl)-3-fluorophenyl)-2-methylnicotinamide] was tested. Which IC50 did it give?
**A.** 0.02 µM

**Q.** For `Cn1nc(-c2ccc(NC(=O)c3ccccc3C3CCN(C(=O)OC(C)(C)C)CC3)cc2)cc1NC(=O)c1ccccc1` [SW394764, tert-butyl4-(2-((4-(5-benzamido-1-methyl-1H-pyrazol-3-yl)phenyl)carbamoyl)phenyl)piperidine-1-carboxylate], which IC50 is on record?
**A.** 0.3 µM

**Q.** For `CN(C)c1cccc(C(=O)Nc2cc(-c3ccc(NC(=O)c4ccccc4Cl)cc3)nn2C)c1` [SW394870, 2-Chloro-N-(4-(5-(3-(dimethylamino)benzamido)-1-methyl-1H-pyrazol-3-yl)phenyl)benzamide], which IC50 is on record?
**A.** 0.02 µM

**Q.** Which IC50 does the source give for `Cn1nc(-c2ccc(NC(=O)c3ccccc3Cl)cc2)cc1NC(=O)Nc1ccccc1` [SW394872, 2-Chloro-N-(4-(1-methyl-5-(3-phenylureido)-1H-pyrazol-3-yl)phenyl)benzamide] here?
**A.** 0.11 µM

**Q.** How did the IC50 turn out when `COc1ccc(C(=O)Nc2cc(-c3ccc(NC(=O)OC(C)(C)C)cc3)nn2C)cc1` [SW388709, tert-Butyl-(4-(5-(4-methoxybenzamido)-1-methyl-1H-pyrazol-3-yl)phenyl)carbamate] was run?
**A.** 16 µM

**Q.** `Cn1nc(-c2ccc(NC(=O)C3CCCC3)cc2)cc1NC(=O)c1ccccc1` [SW394488, N-(3-(4-(Cyclopentanecarboxamido)phenyl)-1-methyl-1H-pyrazol-5-yl)benzamide] was tested. Which IC50 did it give?
**A.** 0.32 µM

**Q.** With `Cn1nc(-c2ccc(NC(=O)C3CCN(C(=O)OC(C)(C)C)CC3)cc2)cc1NC(=O)c1ccccc1` [SW394490, tert-butyl4-((4-(5-benzamido-1-methyl-1H-pyrazol-3-yl)phenyl)carbamoyl)piperidine-1-carboxylate] as the compound, how does the IC50 read?
**A.** 3.84 µM

same assay, conditions: wild type HCT116; 10-point dose response in triplicate; multiple values = separate independent experiments

**Q.** How did the “HCT116 IC50 (uM) HCT116 WT” value turn out when `Cn1nc(-c2ccc(NC(=O)c3ccccc3Cl)cc2)cc1NS(=O)(=O)c1ccccc1` [SW394768, 2-Chloro-N-(4-(1-methyl-5-(phenylsulfonamido)-1H-pyrazol-3-yl)phenyl)benzamide] was run?
**A.** inactive

same assay, conditions: wild type HCT116; 10-point dose response in triplicate; multiple values = separate independent experiments; read-out: HCT116 IC50 (uM) HCT116 WT

**Q.** How did the IC50 turn out when `Cn1nc(-c2ccc(NC(=O)N3CCCCC3)cc2)cc1NC(=O)c1ccccc1` [SW394891-1, N-(4-(5-benzamido-1-methyl-1H-pyrazol-3-yl)phenyl)piperidine-1-carboxamide] was run?
**A.** 0.24 µM

**Q.** How did the IC50 turn out when `C#CCOc1ccccc1C(=O)Nc1ccc(-c2cc(NC(=O)c3cccc(N=[N+]=[N-])c3)n(C)n2)cc1` [SW393066, N-(4-(5-(3-Azidobenzamido)-1-methyl-1H-pyrazol-3-yl)phenyl)-2-(prop-2-yn-1-yloxy)benza-mide] was run?
**A.** 9.4 µM

same assay, conditions: wild type HCT116; tested simultaneously with GCN2KO and +ISRIB; read-out: HCT116 IC50 (uM) HCT116 WT (repeat)

**Q.** For `C#CCOc1ccccc1C(=O)Nc1ccc(-c2cc(NC(=O)c3cccc(N=[N+]=[N-])c3)n(C)n2)cc1` [SW393066, N-(4-(5-(3-Azidobenzamido)-1-methyl-1H-pyrazol-3-yl)phenyl)-2-(prop-2-yn-1-yloxy)benza-mide], which IC50 is on record?
**A.** 7.18 µM
